Experimental data reported in publication PMC6072100, “Exploring the links between peptoid antibacterial activity and toxicity” (MedChemComm, 2017).
Where two headings read alike, the source gives them in different places. Square brackets hold non-standard residues; d marks the D form. Peptide text beside a SMILES is read from it. Gly(Nα-4-Cl-benzyl) = O=C(O)CNCc1ccc(Cl)cc1; N(4-F-Bzl)Gly = O=C(O)CNCc1ccc(F)cc1; Nlys = NCCCCNCC(=O)O

Assay: Cytotoxicity assay with HepG2 (alamarBlue)
Assay type: cell-based, human
Settings: human, HepG2 cells
Procedure: The activity of our peptoid library was assessed against both bacterial and mammalian cells to gain a broader understanding of the factors that lead to effective and selective antimicrobial peptoids. We screened for broad-spectrum antibacterial activity against Gram-negative (Escherichia coli and Pseudomonas aeruginosa) and Gram-positive (Staphylococcus aureus and S. epidermidis) bacteria. The toxicity of the library was also assessed against two mammalian cell lines; HaCaT spontaneously transformed aneuploid keratinocytes were employed to model toxicity against human skin cells and HepG2, a cell line derived from a human liver carcinoma, were used as a study on polarised human hepatocytes. Detailed methods for these assays can be found in the ESI. ^‡ […]
Please note – ED50, the median effective dose, was defined as the dose that kills 50% of cells.
Cytotoxicity analyses were performed in 96-well plates (Costar, Fisher Scientific) using alamarBlue® (Invitrogen) for cell viability detection using a modified protocol as described previously. HepG2 or HaCaT cells were subcultured at 37 °C, 5% CO2 in DMEM high glucose supplemented with heat-inactivated foetal bovine sera (FBS, 10%; Biosera Ltd) and penicillin/streptomycin (P/S, 1%). Cells were counted using a Neubauer Improved Haemocytometer. HepG2 cells were seeded 1 day prior to treatment in 96 well plates at a concentration of 2 × 10^5 cells per mL in 100 μL of medium (2 × 10^4 cells per well). Then cells were pre-incubated with the compounds in triplicate in a dilution series in triplicate from 2–100 μM (5 mM stock solutions in DMSO diluted from 100 μM to 3 μM; untreated cells with DMSO as a negative control) in 50 μl of the media for 1 hour. Afterwards, 40 μL were removed from each well before the addition of 90 μL of the media, followed by incubation for 24 hours at 37 °C, 5% CO2. Then, 10 μL of alamarBlue® (Invitrogen) was added to each well before a 2 hour incubation prior to assessing cell viability using a fluorescent plate reader (Biotek; Ex 560 nm/Em 600 nm). All data were measured in triplicate on a minimum of two occasions to ensure a robust data set was collected. The ED50 values were calculated from the dose response results achieved from the serial dilutions.
Cytotoxicity assay with HepG2
Cytotoxicity analyses were performed in 96-well plates (Costar, Fisher Scientific) using alamarBlue® (Invitrogen) for cell viability detection using a modified protocol as previously described. The HepG2 cells were grown at 37 °C, 5% CO2 in DMEM high glucose supplemented with heat-inactivated foetal bovine sera (FBS, 10%; Biosera Ltd) and penicillin/streptomycin (P/S, 1%). Cells were counted using a Neubauer Improved Haemocytometer. HepG2 cells were seeded 1 day prior to treatment in 96 well plates at a concentration of 2x10^5 cells/mL in 100 µL of medium (2x10^4 cells/well). Then cells were pre-incubated with the compounds in triplicate (5 mM stock solutions in DMSO diluted from 100 µM to 3 µM; untreated cells with DMSO as a negative control) in 50 µl of the media for 1 hour.
Afterwards, 40 µL were removed from each well before the addition of 90 µL of the media, followed by incubation for 24 hours at 37 °C, 5% CO2. Then, 10 µL of alamarBlue® (Invitrogen) was added to each well before a 2 hour incubation prior to assessing cell viability using a fluorescent plate reader (Biotek; Ex 560 nm / Em 600 nm). All data was measured in triplicate on a minimum of two occasions to ensure a robust data set was collected. The ED50 values were calculated from the dose response results achieved from the serial dilutions. […]
5% CO2 in DMEM high glucose supplemented with heat-inactivated foetal bovine sera (FBS, 10%; Biosera Ltd) and penicillin/streptomycin (P/S, 1%). Cells were counted using a Neubauer […]
Empty wells were filled with 100 µL PBS. After 24 hours, cells were incubated with the compounds in a dilution series in triplicate from 2 – 100 µM (5 mM stock solutions in DMSO […]

[1] = dose that kills 50% of cells, 2–100 μM, 1 h with compound then 24 h, alamarBlue, read-out: ED50 HepG2

| Structure (SMILES) | CC50 at 24 h [1] [µM] | CC50 at 24 h (ED50 HepG2) [µM] |
| --- | --- | --- |
| C[C@@H](c1ccccc1)N(CC(N)=O)C(=O)CN(C(=O)CN(CCN)C(=O)CN(C(=O)CN(C(=O)CN(CCN)C(=O)CN(C(=O)CN(C(=O)CNCCN)[C@@H](C)c1ccccc1)[C@@H](C)c1ccccc1)[C@@H](C)c1ccccc1)[C@@H](C)c1ccccc1)[C@@H](C)c1ccccc1 [Peptoid 17, (NaeNspeNspe)3] | 100 |  |
| C[C@@H](c1ccccc1)N(CC(N)=O)C(=O)CN(C(=O)CN(CCN)C(=O)CN(C(=O)CN(C(=O)CNCCN)[C@@H](C)c1ccccc1)[C@@H](C)c1ccccc1)[C@@H](C)c1ccccc1 [Peptoid 18, (NaeNspeNspe)2] |  | 100 |
| COc1ccc(CN(CC(N)=O)C(=O)CN(Cc2ccc(OC)cc2)C(=O)CN(CCCCN)C(=O)CN(Cc2ccc(OC)cc2)C(=O)CN(Cc2ccc(OC)cc2)C(=O)CN(CCCCN)C(=O)CN(Cc2ccc(OC)cc2)C(=O)CN(Cc2ccc(OC)cc2)C(=O)CN(CCCCN)C(=O)CN(Cc2ccc(OC)cc2)C(=O)CN(Cc2ccc(OC)cc2)C(=O)CNCCCCN)cc1 [Peptoid 19, (NLysNpmbNpmb)4] |  | 100 |
| NCCCCNCC(=O)N(CC(=O)N(CC(=O)N(CCCCN)CC(=O)N(CC(=O)N(CC(=O)N(CCCCN)CC(=O)N(CC(=O)N(CC(=O)N(CCCCN)CC(=O)N(CC(=O)N(CC(N)=O)Cc1ccc(Cl)cc1)Cc1ccc(Cl)cc1)Cc1ccc(Cl)cc1)Cc1ccc(Cl)cc1)Cc1ccc(Cl)cc1)Cc1ccc(Cl)cc1)Cc1ccc(Cl)cc1)Cc1ccc(Cl)cc1 [Peptoid 20, (NLysNpcbNpcb)4] (H-[Nlys][Gly(Nα-4-Cl-benzyl)][Gly(Nα-4-Cl-benzyl)][Nlys][Gly(Nα-4-Cl-benzyl)][Gly(Nα-4-Cl-benzyl)][Nlys][Gly(Nα-4-Cl-benzyl)][Gly(Nα-4-Cl-benzyl)][Nlys][Gly(Nα-4-Cl-benzyl)][Gly(Nα-4-Cl-benzyl)]-NH2) |  | 22 |
| NCCCCNCC(=O)N(CC(=O)N(CC(=O)N(CCCCN)CC(=O)N(CC(=O)N(CC(=O)N(CCCCN)CC(=O)N(CC(=O)N(CC(N)=O)Cc1ccc(Cl)cc1)Cc1ccc(Cl)cc1)Cc1ccc(Cl)cc1)Cc1ccc(Cl)cc1)Cc1ccc(Cl)cc1)Cc1ccc(Cl)cc1 [Peptoid 21, (NLysNpcbNpcb)3] (H-[Nlys][Gly(Nα-4-Cl-benzyl)][Gly(Nα-4-Cl-benzyl)][Nlys][Gly(Nα-4-Cl-benzyl)][Gly(Nα-4-Cl-benzyl)][Nlys][Gly(Nα-4-Cl-benzyl)][Gly(Nα-4-Cl-benzyl)]-NH2) |  | 23 |
| NCCCCNCC(=O)N(CC(=O)N(CC(=O)N(CCCCN)CC(=O)N(CC(=O)N(CC(=O)N(CCCCN)CC(=O)N(CC(=O)N(CC(=O)N(CCCCN)CC(=O)N(CC(=O)N(CC(N)=O)Cc1ccc(F)cc1)Cc1ccc(F)cc1)Cc1ccc(F)cc1)Cc1ccc(F)cc1)Cc1ccc(F)cc1)Cc1ccc(F)cc1)Cc1ccc(F)cc1)Cc1ccc(F)cc1 [Peptoid 22, (NLysNpfbNpfb)4] (H-[Nlys][N(4-F-Bzl)Gly][N(4-F-Bzl)Gly][Nlys][N(4-F-Bzl)Gly][N(4-F-Bzl)Gly][Nlys][N(4-F-Bzl)Gly][N(4-F-Bzl)Gly][Nlys][N(4-F-Bzl)Gly][N(4-F-Bzl)Gly]-NH2) |  | 30 |
| NCCCCNCC(=O)N(CC(=O)N(CC(=O)N(CCCCN)CC(=O)N(CC(=O)N(CC(=O)N(CCCCN)CC(=O)N(CC(=O)N(CC(N)=O)Cc1ccc(F)cc1)Cc1ccc(F)cc1)Cc1ccc(F)cc1)Cc1ccc(F)cc1)Cc1ccc(F)cc1)Cc1ccc(F)cc1 [Peptoid 23, (NLysNpfbNpfb)3] (H-[Nlys][N(4-F-Bzl)Gly][N(4-F-Bzl)Gly][Nlys][N(4-F-Bzl)Gly][N(4-F-Bzl)Gly][Nlys][N(4-F-Bzl)Gly][N(4-F-Bzl)Gly]-NH2) |  | 45 |
| NCCCCNCC(=O)N(CC(=O)N(CC(=O)N(CCCCN)CC(=O)N(CC(=O)N(CC(=O)N(CCCCN)CC(=O)N(CC(=O)N(CC(=O)N(CCCCN)CC(=O)N(CC(=O)N(CC(N)=O)Cc1cccc(F)c1)Cc1cccc(F)c1)Cc1cccc(F)c1)Cc1cccc(F)c1)Cc1cccc(F)c1)Cc1cccc(F)c1)Cc1cccc(F)c1)Cc1cccc(F)c1 [Peptoid 24, (NLysNmfbNmfb)4] |  | 17 |
| NCCCCNCC(=O)N(CC(=O)N(CC(=O)N(CCCCN)CC(=O)N(CC(=O)N(CC(=O)N(CCCCN)CC(=O)N(CC(=O)N(CC(N)=O)Cc1cccc(F)c1)Cc1cccc(F)c1)Cc1cccc(F)c1)Cc1cccc(F)c1)Cc1cccc(F)c1)Cc1cccc(F)c1 [Peptoid 25, (NLysNmfbNmfb)3] |  | 43 |
| C[C@@H](c1ccccc1)N(CC(N)=O)C(=O)CN(Cc1ccc(F)cc1)C(=O)CN(CCCCN)C(=O)CN(C(=O)CN(Cc1ccc(F)cc1)C(=O)CN(CCCCN)C(=O)CN(C(=O)CN(Cc1ccc(F)cc1)C(=O)CN(CCCCN)C(=O)CN(C(=O)CN(Cc1ccc(F)cc1)C(=O)CNCCCCN)[C@@H](C)c1ccccc1)[C@@H](C)c1ccccc1)[C@@H](C)c1ccccc1 [Peptoid 26, (NLysNpfbNspe)4] |  | 26 |
| C[C@@H](c1ccccc1)N(CC(N)=O)C(=O)CN(Cc1ccc(F)cc1)C(=O)CN(CCCCN)C(=O)CN(C(=O)CN(Cc1ccc(F)cc1)C(=O)CN(CCCCN)C(=O)CN(C(=O)CN(Cc1ccc(F)cc1)C(=O)CNCCCCN)[C@@H](C)c1ccccc1)[C@@H](C)c1ccccc1 [Peptoid 27, (NLysNpfbNspe)3] | 36 |  |
| C[C@@H](c1ccccc1)N(CC(N)=O)C(=O)CN(C(=O)CN(CCCCN)C(=O)CN(Cc1ccc(F)cc1)C(=O)CN(Cc1ccc(F)cc1)C(=O)CN(CCCCN)C(=O)CN(C(=O)CN(C(=O)CN(CCCCN)C(=O)CN(Cc1ccc(F)cc1)C(=O)CN(Cc1ccc(F)cc1)C(=O)CNCCCCN)[C@@H](C)c1ccccc1)[C@@H](C)c1ccccc1)[C@@H](C)c1ccccc1 [Peptoid 28, [(NLysNpfbNpfb)(NLysNspeNspe)]2] |  | 55 |
| C[C@@H](c1ccccc1)N(CC(N)=O)C(=O)CN(C(=O)CN(CCCCN)C(=O)CN(Cc1ccc(F)cc1)C(=O)CN(Cc1ccc(F)cc1)C(=O)CN(CCCCN)C(=O)CN(C(=O)CN(C(=O)CNCCCCN)[C@@H](C)c1ccccc1)[C@@H](C)c1ccccc1)[C@@H](C)c1ccccc1 [Peptoid 29, (NLysNspeNspe)(NLysNpfbNpfb)(NLysNspeNspe)] | 43 |  |
| CCCCCNCC(=O)N(CC(=O)N(CC(=O)N(CCCCN)CC(=O)N(CC(=O)N(CC(=O)N(CCCCN)CC(=O)N(CC(=O)N(CC(=O)N(CCCCN)CC(=O)N(CC(=O)N(CC(N)=O)[C@@H](C)c1ccccc1)[C@@H](C)c1ccccc1)[C@@H](C)c1ccccc1)[C@@H](C)c1ccccc1)[C@@H](C)c1ccccc1)[C@@H](C)c1ccccc1)[C@@H](C)c1ccccc1)[C@@H](C)c1ccccc1 [Peptoid 30, (NamyNspeNspe)[(NLysNspeNspe)]3] |  | 15 |
| CCCCCNCC(=O)N(CC(=O)N(CC(=O)N(CCCCC)CC(=O)N(CC(=O)N(CC(=O)N(CCCCN)CC(=O)N(CC(=O)N(CC(=O)N(CCCCN)CC(=O)N(CC(=O)N(CC(N)=O)[C@@H](C)c1ccccc1)[C@@H](C)c1ccccc1)[C@@H](C)c1ccccc1)[C@@H](C)c1ccccc1)[C@@H](C)c1ccccc1)[C@@H](C)c1ccccc1)[C@@H](C)c1ccccc1)[C@@H](C)c1ccccc1 [Peptoid 31, (NamyNspeNspe)2(NLysNspeNspe)2] |  | 18 |
| CCCCCN(CC(=O)N(CC(=O)N(CC(=O)N(CCCCN)CC(=O)N(CC(=O)N(CC(N)=O)[C@@H](C)c1ccccc1)[C@@H](C)c1ccccc1)[C@@H](C)c1ccccc1)[C@@H](C)c1ccccc1)C(=O)CN(C(=O)CN(C(=O)CN(CCCCN)C(=O)CN(C(=O)CN(C(=O)CNCCCCN)[C@@H](C)c1ccccc1)[C@@H](C)c1ccccc1)[C@@H](C)c1ccccc1)[C@@H](C)c1ccccc1 [Peptoid 32, (NLysNspeNspe)2(NamyNspeNspe)(NLysNspeNspe)] |  | 22 |
